Test results reported in patent publication US20110262566A1, “NOVEL USEFUL THERAPEUTIC AGENT FOR LOWER URINARY TRACT SYMPTOM” (DAINIPPON SUMITOMO PHARMA CO., LTD., priority 2008, published 2011).

Columns and labels:
small DRG neurons [1] = test: Test Example 1: action of the compound A on C-fiber activation (high-K-induced rise in membrane potential, DiBAC4(3) fluorescence); assay type: cell-based, rat; conditions: compound A 3 μM pretreated between 1st and 2nd 60 mM K stimulations; control 72±3%
Description: This test was performed using male SD strain rats at 6 to 7 weeks of age after birth. The animals were reared in metal cages, and allowed to take food (CE-2; CLEA Japan) and water ad libitum.
Rat spinal cord was dissected under halothane anesthesia. DRG tissue was removed from the spinal cord under a stereoscopic microscope, and recovered into an ice-cooled culture dish containing DMEM. The DRG tissue was digested using 0.25% trypsin and 0.38% collagenase, and DRG neurons were isolated. The DRG neurons were seeded to a cover glass coated with Poly-L-Lysine and laminin, and cultured.
On the day after the start of cultivation, the DRG neurons were loaded with 5 μM DiBAC4(3) in the presence of 5% gaseous carbon dioxide at 37° C. for 1 hour or more. Thereafter, the neurons were transferred to an assay buffer solution (pH 7.3; 10 mM HEPES, 145 mM NaCl, 5 mM KCl, 2 mM CaCl2, 1 mM MgCl2, mM Glucose), and the fluorescence intensity of each DRG neuron was measured using the image analytical system AQUACOSMOS (Hamamatsu Photonics).
When small DRG neurons were selected and stimulated with 60 mM high-concentration K solution (pH 7.3; 10 mM HEPES, 90 mM NaCl, 60 mM KCl, 2 mM CaCl2, 1 mM MgCl2, 10 mM Glucose), a rise in membrane potential was observed. When the 60 mM high-concentration K solution was replaced with the assay buffer solution, the transiently-elevated membrane potential fell rapidly. […]

small DRG neurons [2] = test: Test Example 2: combination effect with α1-adrenergic receptor blocker (high-K-induced rise in membrane potential, DiBAC4(3) fluorescence); assay type: cell-based, rat; conditions: control 72±3%
Description: This test was performed using male SD strain rats at 6 to 7 weeks of age after birth. The animals were reared in metal cages, and allowed to take food (CE-2; CLEA Japan) and water ad libitum. Rat spinal cord was dissected under halothane anesthesia. DRG tissue was removed from the spinal cord under a stereoscopic microscope, and recovered into an ice-cooled culture dish containing DMEM. The DRG tissue was digested using 0.25% trypsin and 0.38% collagenase, and DRG neurons were isolated. The DRG neurons were seeded to a cover glass coated with Poly-L-Lysine and laminin, and cultured. On the day after the start of cultivation, the DRG neurons were loaded with 5 μM DiBAC4(3) in the presence of 5% gaseous carbon dioxide at 37° C. for 1 hour or more. Thereafter, the neurons were transferred to an assay buffer solution (pH 7.3; 10 mM HEPES, 145 mM NaCl, 5 mM KCl, 2 mM CaCl2, 1 mM MgCl2, mM Glucose), and the fluorescence intensity of each DRG neuron was measured using the image analytical system AQUACOSMOS (Hamamatsu Photonics). When small DRG neurons were selected and stimulated with 60 mM high-concentration K solution (pH 7.3; 10 mM HEPES, 90 mM NaCl, 60 mM KCl, 2 mM CaCl2, 1 mM MgCl2, 10 mM Glucose), a rise in membrane potential was observed. When the 60 mM high-concentration K solution was replaced with the assay buffer solution, the transiently-elevated membrane potential fell rapidly. […]

O=C1Nc2ccccc2[C@H](c2ccccc2)N1C1CCN(Cc2cccc(OC(F)(F)F)c2)CC1 [compound A, (+)-3-{1-[3-(trifluoromethoxy)benzyl]piperidin-4-yl}-4-phenyl-3,4-dihydro-2(1H)-quinazolinone]
rise in membrane potential (ΔF/F), second rise relative to first rise as 100% (small DRG neurons [1]): 66±6%

COc1ccccc1N1CCN(CC(O)COc2cccc3ccccc23)CC1 (stereo not drawn) [naftopidil]
rise in membrane potential (ΔF/F), second rise relative to first rise as 100% (small DRG neurons [2]; naftopidil 30 μM alone, treated between 1st and 2nd 60 mM K stimulations): 40±5%

CCOc1ccccc1OCCN[C@H](C)Cc1ccc(OC)c(S(N)(=O)=O)c1 [tamsulosin]
change in membrane potential (small DRG neurons [2]; tamsulosin 0.1 μM alone, pretreatment, 60 mM K stimulation): nearly the same extent as with the control
